Consider three molecules from patent publication US12371400B2, “Cathepsin inhibitors” (ACADEMISCH ZIEKENHUIS LEIDEN (H.O.D.N. LUMC), priority 2017, dated 2025).

The kinact is the maximal first-order rate at which the target is inactivated. What is called half-life is how long it takes for the measured level to halve.

For data set [1], the target named is T1, hCatK (Homo sapiens, UniProt P43235).
T1 sequence (P43235 115-329): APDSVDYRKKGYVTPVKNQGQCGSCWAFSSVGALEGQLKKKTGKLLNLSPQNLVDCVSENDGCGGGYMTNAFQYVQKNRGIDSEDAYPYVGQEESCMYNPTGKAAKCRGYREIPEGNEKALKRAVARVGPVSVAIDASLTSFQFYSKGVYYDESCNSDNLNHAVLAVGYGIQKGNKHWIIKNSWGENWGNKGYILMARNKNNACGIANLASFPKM
In words: Jump dilution assay for reversibility of hCatK inhibition. The format is biochemical. As to conditions: 300× dilution into fluorogenic substrate solution. Here is the method:
FIG. 3 provides a schematic overview of a jump dilution assay. A) Dose response curve for a 300-fold dilution of inhibitor concentration from full inhibition to full activity. B) Protocol and concentrations for incubation and dilution. C) Progress curves for hCatK proteolytic activity with inhibitor compounds ODN, 4, 5, 6 after dilution.
Reversibility of protease inhibition by an inhibitor may be assessed in a jump dilution assay. An exemplary jump dilution assay is provided in R. A. Copeland, A. Basavapathruni, M. Moyer, M. P. Scott, Anal. Biochem. 2011, 416, 206. In a jump dilution assay the protease (e.g. CatK) is incubated with inhibitor at high concentration to allow full active site occupation, and subsequently diluted, e.g. 300×, into fluorogenic substrate solution resulting in an inhibitor concentration corresponding with full protease activity. The hydrolysis of fluorogenic substrate is monitored over an extended time period, e.g. at least 60 minutes. […] The assay results may be compared with the results using a known irreversible inhibitor of the protease as a control. E-64 represents an established pan-Cathepsin irreversible inhibitor, suitable for use as a positive control with most cysteine protease Cathepsins.
Reversibility of hCatK inhibition was assessed in a jump dilution assay. Established pan-Cathepsin inhibitor E-64 was taken along as a control for irreversible inhibition. Purified hCatK was incubated with inhibitors at high concentration to allow full active site occupation, and subsequently diluted 300× into fluorogenic substrate solution resulting in an inhibitor concentration corresponding with full activity (FIG. 3).

Data set [2] has as its target T1, hCatK. In words: Kinetic evaluation of covalent inhibitors on purified hCatK. The format is biochemical. As to conditions: 100 pM hCatK, 4 μM Z-FR-AMC, 26° C., reaction started by addition of CatK; for Ki: read-out: Kl; for kinact: read-out: kinact (converted). As for the experimental part: The reaction kinetics of irreversible covalent inhibitor compounds may be assed in the following manner. Inhibitors (200 nL, 100× final concentration in DMSO) were diluted in reaction buffer (10 μL). Fluorogenic substrate (5 μL, 4× final concentration) was added and the reaction was started by addition of Cathepsin (5 μL, 4× final concentration). Fluorescence intensity was measured every 2 minutes for 60 minutes and fitted to equation I to obtain the Kobs. The obtained values were plotted against the inhibitor concentration and fitted to equation II to obtain kinetic parameters Kinact (rate of covalent bond formation) and Ki.
Kinetic evaluation of irreversible covalent inhibitors was conducted by following the progress curve of inhibition when the hydrolysis of substrate is started by addition of the enzyme (instead of incubating the protease with the inhibitor prior to addition of the substrate). From this curve the maximum rate of covalent bond formation (Kinact) could be determined (Table 4).

The conditions of data set [3]: in vivo; cited from earlier work.
For data set [4] the following is noted: phase III clinical trials; cited from earlier work.
A further data set has as its target T2, CatK (Homo sapiens, UniProt P43235).
T2 sequence (P43235 115-329): T1 sequence (P43235 115-329)
The conditions noted are these: cited from earlier work.

Turning to `C#CC(C)NC(=O)[C@H](CC(C)(C)F)N[C@@H](c1ccc(-c2ccc(S(C)(=O)=O)cc2)cc1)C(F)(F)F` (mixture of isomers) [Compound 5, (S)—N—((R/S)-but-3-yn-2-yl)-4-fluoro-4-methyl-2-(((S)-2,2,2-trifluoro-1-(4′-(methylsulfonyl)-[1,1′-biphenyl]-4-yl)ethyl)amino)pentanamide], the “reversibility of hCatK inhibition” value on hCatK [1] is on record as “irreversible”. Further, on hCatK [2], the kinact/Kl was found to be 250 M⁻¹ s⁻¹, the Ki was found to be 3250 nM and the inactivation rate constant (kinact) is 0.000783 s⁻¹.

Regarding `CC(C)(F)C[C@H](N[C@@H](c1ccc(-c2ccc(S(C)(=O)=O)cc2)cc1)C(F)(F)F)C(=O)NC1(C#N)CC1` [ODN, (S)—N-(1-cyanocyclopropyl)-4-fluoro-4-methyl-2-(((S)-2,2,2-trifluoro-1-(4′-(methylsulfonyl)-[1,1′-biphenyl]-4-yl)ethyl)amino)pentanamide, reference compound], the “reversibility of hCatK inhibition” value at hCatK [1] is on record as “(fast) reversible inhibitor”. Further, the half-life in data set [3] was 66 to 93 h. In addition, the stroke risk entry in data set [4] is reported as “increased stroke risk”. In addition, on CatK, the “selectivity for CatK versus other Cathepsins” value is “high selectivity”.

Consider `C#CCNC(=O)[C@H](CC(C)(C)F)N[C@@H](c1ccc(-c2ccc(S(C)(=O)=O)cc2)cc1)C(F)(F)F` [Compound 4, (S)-4-fluoro-4-methyl-N-(prop-2-yn-1-yl)-2-(((S)-2,2,2-trifluoro-1-(4′-(methylsulfonyl)-[1,1′-biphenyl]-4-yl)ethyl)amino)pentanamide], for which the “reversibility of hCatK inhibition” value at hCatK [1] is “irreversible”. Moreover, at hCatK [2], the kinact/Kl is 883 M⁻¹ s⁻¹, the Ki was 212 nM and the kinact was 0.000183 s⁻¹.
